Source: patent US6495529B1 (Warner-Lambert Company, priority 1998, dated 2002)

Assays:
Sprague Dawley rats = assay: Nasal airway pressure in normal (non-histamine-challenged) rats; conditions: for Mean Decrease in Nasal Airway Pressure: i.v.
[1] = tested on: histamine-challenged rats; assay: Nasal airway pressure in histamine-challenged rats
[2] = tested on: New Zealand white rabbits; assay: Pupil diameter / mydriasis after topical application to rabbit eye
Swiss-Webster mice = assay: Locomotor stimulant and depressant effects in mice; conditions: mice, i.p.
Description: Male Swiss-Webster mice (HSD ND4, Harlan Sprague Dawley, Houston, Tex.) aged 2-3 months were used in these studies. Each dose group consisted of 8 mice. The mice were housed 2 to 4 per cage in 30.4×22.9×15.2 cm clear polycarbonate cages with food and water available ad libitum for at least one week prior to locomotor activity testing. The colony was maintained at 23±1° C., on a normal light-dark cycle beginning at 0700 hr. All testing took place during the light portion of the light-dark cycle.
Horizontal (forward movement) locomotor activity was measured using a standardized, optical activity monitoring system [Model KXYZCM (16), Omnitech Electronics, Columbus, Ohio]. Activity was monitored in forty 40.5×40.5×30.5 cm clear acrylic chambers that where housed in sets of two within larger sound-attenuating chambers. A panel of 16 infrared beams and corresponding photodetectors were spaced 2 cm apart along the sides and 2.4 cm above the floor of each activity chamber. A 7.5-W incandescent light above each chamber provided dim illumination via a rheostat set to 20% of full scale. Fans provided an 80-dB ambient noise level within the chamber.
(+)-Amphetamine was used as a positive control. The total horizontal distance traversed (cm) was recorded at 10 minute intervals for a 2-hour session. Separate groups of 8 mice were assigned to each dose or saline group, and dose-effect testing continued for each compound until maximal stimulant or depressant effects could be estimated. A separate control group was tested along with each compound.
Using TableCurve 2D v2.03 (Jandel Scientific), the mean average total distance traversed (cm/10 min) for that period was fit to a 3-parameter logistic peak function of log10 dose (with the constant set to the mean of the saline group), and the maximum effect estimated from the resulting curve. The ED50 (dose producing ½ maximal stimulant activity) was estimated from a linear regression against log10 dose of the ascending portion of the dose-effect curve. The stimulant efficacy was the peak effect of the compound (cm/10 min) as estimated from the logistic peak function, minus the mean control distance traveled (cm/10 min), and was expressed for each stimulant compound as a ratio to the stimulant efficacy determined for (+)-amphetamine.
The mean average total distance traversed (cm/10 min) for that period were fit to a linear function of log10 dose of the descending portion of the dose-effect curve. […] Efficacy was the ratio of maximal depressant effect to maximum possible depression for each compound (mean average total distance of the control group minus the lowest mean total distance, expressed as a ratio to the control group total distance).
Time course data for each compound were considered in 2-way analyses of variance with dose as a between-group and time as a within-group factor. The dose-effect data were considered in 1-way analyses of variance, and planned individual comparisons were conduced between each dose and the saline control group. Interaction studies were considered in 2-way analyses of variance, with Pretreatment and Test dose as the factors.

mongrel dogs = assay: Intravenous dose increasing mean arterial pressure 10% in anesthetized dogs; conditions: anesthetized dog, i.v.
[3] = tested on: New Zealand white rabbits; assay: Intraocular pressure (IOP) after topical application to rabbit eye
α1-receptors = assay type: binding, dog; conditions: read-out: Alpha-1 Ki
Description: The lungs of mongrel dogs were separated from cartilaginous airways and major blood vessels, weighted, chopped and placed into 10 volumes of ice-cold buffered sucrose (50 mM Tris-HCl pH 7.4, 1 mM EGTA, 0.32 M Sucrose). The tissue was then homogenized in a Polytron tissue homogenizer. The homogenate was filtered through two layers of cheesecloth, and the filtrate was dounced three times using a Con-Turque Potter homogenizer. […] The supernatant was recentrifuged at 30,000×g for 30 min at 4° C. and the resulting pellet was washed and resuspended in 10 volumes of Tris buffer (50 mM Tris HCL, pH 7.4, 1 mM EGTA) and incubated at 37° C. for 30 min in a shaking water bath. The suspension was centrifuged at 4° C., at 30,000×g for 30 min and the resulting pellet washed in 10 volumes of Tris buffer. […] Protein concentration was then determined by the Lowry method and the final suspension was adjusted to 10 mg of protein/ml, aliquoted and stored at −90° C.
Nonspecific binding was determined for each concentration point in separate incubations, with 10 μM phentolamine. Each experimental point was determined in triplicate. […] All binding assay incubations were terminated by rapid dilution with 2 ml of ice-cold wash buffer (50 mM Tris-HCl, pH 7.4) and filtration through Whatman GF/B filters using Brandel receptor-binding harvester.
All data were analyzed with the aid of microcomputer nonlinear curve fitting programs (PRISM 2.0, Graphpad Software, San Diego Calif.).
The receptors resident in each of the three membrane preparations were evaluated by standard saturation analysis following the addition of increasing concentrations of the appropriate radioligand. […]

[4] = drug 1% topical, drug treated eye (T), 0.5 hr
[5] = drug 1% topical, drug treated eye (T), 1 hr
[6] = drug 1% topical, drug treated eye (T), 3 hr
[7] = drug 1% topical, drug treated eye (T), 5 hr
[8] = drug 1% topical, drug treated eye (T), −0.5 hr (pre-treatment)
[9] = drug 1% topical, drug treated eye (T), −1 hr (pre-treatment)
[10] = drug 1% topical, untreated contralateral eye (U), 0.5 hr
[11] = drug 1% topical, untreated contralateral eye (U), 1 hr
[12] = drug 1% topical, untreated contralateral eye (U), 3 hr
[13] = drug 1% topical, untreated contralateral eye (U), 5 hr
[14] = drug 1% topical, untreated contralateral eye (U), −0.5 hr (pre-treatment)
[15] = drug 1% topical, untreated contralateral eye (U), −1 hr (pre-treatment), mean ± S.E.
[16] = drug 2% topical, drug treated eye (T), 0.5 hr
[17] = drug 2% topical, drug treated eye (T), 1 hr
[18] = drug 2% topical, drug treated eye (T), 3 hr
[19] = drug 2% topical, drug treated eye (T), 5 hr
[20] = drug 2% topical, drug treated eye (T), −0.5 hr (pre-treatment)
[21] = drug 2% topical, drug treated eye (T), −1 hr (pre-treatment)
[22] = drug 2% topical, untreated contralateral eye (U), 0.5 hr
[23] = drug 2% topical, untreated contralateral eye (U), 1 hr
[24] = drug 2% topical, untreated contralateral eye (U), 3 hr
[25] = drug 2% topical, untreated contralateral eye (U), 5 hr
[26] = drug 2% topical, untreated contralateral eye (U), −0.5 hr (pre-treatment)
[27] = drug 2% topical, untreated contralateral eye (U), −1 hr (pre-treatment)

## CNC[C@H](O)c1cccc(O)c1 [(−)-phenylephrine]
Sprague Dawley rats; 5% of the dose that increased MAP 10%, mean ± SEM
  Mean Decrease in Nasal Airway Pressure: −1.6 ± 0.9 mm water
Sprague Dawley rats; 10% of the dose that increased MAP 10%
  Mean Decrease in Nasal Airway Pressure: −4.8 ± 0.8 mm water
Sprague Dawley rats; 25% of the dose that increased MAP 10%
  Mean Decrease in Nasal Airway Pressure: −12.1 ± 2.4 mm water
Sprague Dawley rats; 50% of the dose that increased MAP 10%
  Mean Decrease in Nasal Airway Pressure: −5.2 ± 1.6 mm water
Sprague Dawley rats; 100% dose i.v., non-histamine-challenged rats
  Mean decrease in nasal airway pressure, % Change: −20.3%
Sprague Dawley rats; after 100% dose (dose raising MAP 10%) into jugular vein
  Nasal airway pressure, Post Drug: 4 ± 0.2 mm H2O
Sprague Dawley rats; before drug, non-histamine-challenged rats
  Nasal airway pressure, Control: 5 ± 0.2 mm H2 O
[1]; 100% dose i.v. two minutes after histamine
  Nasal airway pressure, Post Drug: 10.5 mm water
[1]; after intranasal histamine 50 mM 0.02 ml/nostril, before drug
  Nasal airway pressure, Post Histamine: 13.2 ± 2.1 mm water
[1]; before histamine and drug
  Nasal airway pressure, Control: 7.5 ± 0.5 mm water
[1]; post drug vs post histamine
  Mean decrease in nasal airway pressure, % Change: −22.3%
[2]; 1% solution
  Mydriatic Responses, TREATED EYE: ++ (++ = 2-4 mm change)
  Mydriatic Responses, UNTREATED EYE: 0
[2]; 2% solution
  Mydriatic Responses, TREATED EYE: +++ (+++ >4 mm change)
  Mydriatic Responses, UNTREATED EYE: +++ (+++ >4 mm change)
[2]; [4]
  Pupil Diameter: 7 ± 0.4 mm
[2]; [5]
  Pupil Diameter: 9 ± 0.4 mm
[2]; [6]
  Pupil Diameter: 9 ± 0.4 mm
[2]; [7]
  Pupil Diameter: 9 ± 0.4 mm
[2]; [8]
  Pupil Diameter: 6 ± 0.4 mm
[2]; [9]
  Pupil Diameter: 6 ± 0.4 mm
[2]; [10]
  Pupil Diameter: 6 ± 0.4 mm
[2]; [11]
  Pupil Diameter: 6 ± 0.4 mm
[2]; [12]
  Pupil Diameter: 6 ± 0.4 mm
[2]; [13]
  Pupil Diameter: 6 ± 0.4 mm
[2]; [14]
  Pupil Diameter: 6 ± 0.4 mm
[2]; [15]
  Pupil Diameter: 6 ± 0.4 mm
[2]; [16]
  Pupil Diameter: 12 ± 0.2 mm
[2]; [17]
  Pupil Diameter: 12 ± 0.2 mm
[2]; [18]
  Pupil Diameter: 12 ± 0.2 mm
[2]; [19]
  Pupil Diameter: 12 ± 0.2 mm
[2]; [20]
  Pupil Diameter: 6 ± 0.2 mm
[2]; [21]
  Pupil Diameter: 6 ± 0.2 mm
[2]; [22]
  Pupil Diameter: 12 ± 0.2 mm
[2]; [23]
  Pupil Diameter: 12 ± 0.2 mm
[2]; [24]
  Pupil Diameter: 12 ± 0.2 mm
[2]; [25]
  Pupil Diameter: 12 ± 0.2 mm
[2]; [26]
  Pupil Diameter: 6 ± 0.2 mm
[2]; [27]
  Pupil Diameter: 6 ± 0.2 mm
Swiss-Webster mice
  Depression Potency (ID50, dose resulting in ½ the maximal depressant effect): 2.3 mg/kg
  Depression Time (30-min period following injection in which the maximal depression occurred): 0 to 30 min
  Stimulation Time (30-min period following injection in which the maximal stimulant effect occurred): 60 to 90 min
Swiss-Webster mice; 2-hour session
  locomotor depressant effect (in words): some locomotor depression
  locomotor stimulant effect (in words): Little or no stimulant effects
Mongrel dogs
  Intravenous Dose Needed to Increase MAP 10%: 0.01 mg/kg
[3]; [4]
  IOP: 24 ± 0.6 mmHg
[3]; [5]
  IOP: 24 ± 1.0 mmHg
[3]; [6]
  IOP: 23 ± 1.5 mmHg
[3]; [7]
  IOP: 21 ± 1.9 mmHg
[3]; [8]
  IOP: 16 ± 1.5 mmHg
[3]; [9]
  IOP: 20 ± 1.6 mmHg
[3]; [10]
  IOP: 18 ± 1.6 mmHg
[3]; [11]
  IOP: 19 ± 1.3 mmHg
[3]; [12]
  IOP: 20 ± 1.9 mmHg
[3]; [13]
  IOP: 19 ± 1.7 mmHg
[3]; [14]
  IOP: 15 ± 2.1 mmHg
[3]; [15]
  IOP: 16 ± 1.0 mmHg
[3]; [16]
  IOP: 12 ± 0.8 mmHg
[3]; [17]
  IOP: 14 ± 2.0 mmHg
[3]; [18]
  IOP: 16 ± 0.8 mmHg
[3]; [19]
  IOP: 14 ± 1.3 mmHg
[3]; [20]
  IOP: 15 ± 1.5 mmHg
[3]; [21]
  IOP: 18 ± 1.6 mmHg
[3]; [22]
  IOP: 20 ± 2.0 mmHg
[3]; [23]
  IOP: 20 ± 2.4 mmHg
[3]; [24]
  IOP: 14 ± 1.7 mmHg
[3]; [25]
  IOP: 14 ± 2.0 mmHg
[3]; [26]
  IOP: 17 ± 1.9 mmHg
[3]; [27]
  IOP: 17 ± 1.9 mmHg
α1-receptors
  Ki: 3000 nM
